From patent US8959984B2, “Proteome-wide quantification of small molecule binding to cellular target proteins” (priority 2007, dated 2015)
Values joined by “and” are separate entries in the source; they are usually repeats but may differ in a detail not shown here. Identical values can stand only once. Like-named read-outs stand apart in the source and are kept apart here.

Assays:
[1] = molecular target: JNK2 (MAPK9) (Homo sapiens, UniProt P45984); experiment: binding to AX14596 beads (HeLa lysate, SILAC MS)
Protocol: (§1) Differentially SILAC-encoded cell lysates were either incubated with the inhibitor beads displaying immobilized AX14596 or control resin devoid of ligand. In parallel, the supernatant from the first binding step was subjected to a second incubation with the AX14596 resin (FIG. 4). The resulting three elution fractions were combined, resolved by gel electrophoresis, proteolytically digested and the relative abundance of the retained proteins quantified. Proteins showing considerable binding to the control resin were identified as non-specific interactors and therefore not considered further. […] These target-specific ratios were similar in “label switch” experiments (FIGS. 6a and 6c). The binding equilibrium was determined in parallel control SILAC experiments as well as the excess of the immobilized compound over its cellular targets, the excess preferably being a molar excess (FIG. 7 and FIG. 8).
(§2) Cysteine carbamidomethylation was set as a fixed modification and N-acetyl protein and oxidized methionine were allowed as variable modifications. Spectra that were determined to result from heavy labeled peptides in the pre-search detection of SILAC partners by MaxQuant were searched with the fixed modifications Lys^4, Lys^8, Arg^6 and Arg^10, whereas MS/MS spectra for which no SILAC state could be assigned before database searching were searched with Lys^4, Lys^8, Arg^6 and Arg^10 as variable modifications. The mass tolerance was set to 5 ppm for monoisotopic precursor ions and to 0.5 Da for MS/MS peaks. The minimum peptide length was set to 6 amino acids and up to three missed cleavages and three isotopically labeled amino acids were permitted per peptide. The accepted false discovery rate (FDR) was 1% for the proteins and peptides. The cut-off for the posterior error probability (PEP) of peptides was set to 10%. Peptide PEPs were determined by generating Mascot score and peptide-length-dependent histograms for both the forward and the reverse hits and then deriving the probability of a false identification for a given top-scoring peptide using Bayes' theorem. The PEPs of peptides belonging to the same proteins were then multiplied. Each peptide sequence was considered only once with the lowest PEP determined in case of multiple sequencing of the same isotopic pattern or of peptide species with different SILAC, charge or modification states. Proteins were then sorted according to their products of their peptide PEPs and included until a FDR of 1% was reached according to the fraction of reverse proteins contained in the protein list. In addition to the FDR threshold applied for protein identification, proteins were only included when they were identified with at least two peptides (of which one was required to be unique for the protein) and quantified if at least on quantifiable SILAC pair was associated with them. Outliers were not removed as protein ratios were calculated as the median instead of the average of all peptide ratios. For peptides shared among different identified proteins, SILAC ratios were only considered for the ratio of the protein identified with the highest number of unique peptides. Protein ratios for the different in vitro association experiments were corrected for the initial SILAC pooling ratio, which was determined from the median of protein ratios in pooled SILAC-encoded cell extracts.

[2] = molecular target: p38a (MAPK14, IPI00002857) (Homo sapiens, UniProt Q16539); experiment: binding to AX14596 beads (HeLa lysate, SILAC MS)
Protocol: as §1, §2

[3] = molecular target: CaMK2g (CAMK2G) (Homo sapiens, UniProt Q13555); experiment: binding to AX14596 beads (HeLa lysate, SILAC MS)
Protocol: as §1, §2

[4] = molecular target: PKD2 (PRKD2) (Homo sapiens, UniProt Q9BZL6); experiment: binding to AX14596 beads (HeLa lysate, SILAC MS)
Protocol: as §1, §2

[5] = molecular target: SNRPE (Homo sapiens, UniProt P62304); experiment: binding to AX14596 beads (HeLa lysate, SILAC MS)
Protocol: as §1, §2

[6] = molecular target: T1, BRK (PTK6) (Homo sapiens, UniProt Q13882); experiment: binding to AX14596 beads (HeLa lysate, SILAC MS)
T1 construct: endogenous in cells; host or cells: HeLa S3
Protocol: as §1, §2

[7] = molecular target: JNK2 (Homo sapiens, UniProt P45984); experiment: binding to immobilized V16742 (IVA1/IVA2, HeLa lysate, MS)
[8] = molecular target: BRD4 (Homo sapiens, UniProt O60885); experiment: as above
[9] = molecular target: RIPK2 (Homo sapiens, UniProt O43353); experiment: as above
[10] = molecular target: ERK2 (Homo sapiens, UniProt P28482); experiment: as above; settings: for Percent bound at 1.87 μM 16742 conc / Percent bound at 8.74 μM 16742 conc / Percent bound at 52 μM 16742 conc / Kd: Erk2
[11] = molecular target: JAK1 (Homo sapiens, UniProt P23458); experiment: as above
[12] = immobilized V16742, read-out: Kd

PKD2 (PRKD2), sequence (Q9BZL6 whole entry): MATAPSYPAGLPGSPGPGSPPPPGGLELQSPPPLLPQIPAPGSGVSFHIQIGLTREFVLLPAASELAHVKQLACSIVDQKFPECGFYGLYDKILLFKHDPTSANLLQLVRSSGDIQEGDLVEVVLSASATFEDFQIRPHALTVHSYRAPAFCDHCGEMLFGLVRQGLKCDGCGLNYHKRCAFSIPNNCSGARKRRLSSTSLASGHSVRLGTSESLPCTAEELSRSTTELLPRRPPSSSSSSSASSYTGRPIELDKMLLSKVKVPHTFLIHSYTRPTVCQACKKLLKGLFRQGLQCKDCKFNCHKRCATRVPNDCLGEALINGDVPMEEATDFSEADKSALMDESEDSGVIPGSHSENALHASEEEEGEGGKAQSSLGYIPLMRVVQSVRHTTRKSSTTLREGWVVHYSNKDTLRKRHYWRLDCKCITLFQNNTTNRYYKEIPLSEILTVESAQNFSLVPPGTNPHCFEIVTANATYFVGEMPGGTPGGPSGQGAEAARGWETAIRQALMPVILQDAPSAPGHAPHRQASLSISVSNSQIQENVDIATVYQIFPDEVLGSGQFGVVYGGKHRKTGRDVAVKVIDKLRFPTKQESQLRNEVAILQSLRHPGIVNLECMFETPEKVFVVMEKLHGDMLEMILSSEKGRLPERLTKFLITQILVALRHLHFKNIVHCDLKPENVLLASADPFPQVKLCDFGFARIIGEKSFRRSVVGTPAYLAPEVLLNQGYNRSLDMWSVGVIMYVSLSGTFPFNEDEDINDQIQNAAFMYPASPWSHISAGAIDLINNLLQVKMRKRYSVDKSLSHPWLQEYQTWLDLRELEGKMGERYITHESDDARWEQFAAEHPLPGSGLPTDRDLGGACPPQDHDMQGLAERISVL
JAK1, sequence (P23458 whole entry): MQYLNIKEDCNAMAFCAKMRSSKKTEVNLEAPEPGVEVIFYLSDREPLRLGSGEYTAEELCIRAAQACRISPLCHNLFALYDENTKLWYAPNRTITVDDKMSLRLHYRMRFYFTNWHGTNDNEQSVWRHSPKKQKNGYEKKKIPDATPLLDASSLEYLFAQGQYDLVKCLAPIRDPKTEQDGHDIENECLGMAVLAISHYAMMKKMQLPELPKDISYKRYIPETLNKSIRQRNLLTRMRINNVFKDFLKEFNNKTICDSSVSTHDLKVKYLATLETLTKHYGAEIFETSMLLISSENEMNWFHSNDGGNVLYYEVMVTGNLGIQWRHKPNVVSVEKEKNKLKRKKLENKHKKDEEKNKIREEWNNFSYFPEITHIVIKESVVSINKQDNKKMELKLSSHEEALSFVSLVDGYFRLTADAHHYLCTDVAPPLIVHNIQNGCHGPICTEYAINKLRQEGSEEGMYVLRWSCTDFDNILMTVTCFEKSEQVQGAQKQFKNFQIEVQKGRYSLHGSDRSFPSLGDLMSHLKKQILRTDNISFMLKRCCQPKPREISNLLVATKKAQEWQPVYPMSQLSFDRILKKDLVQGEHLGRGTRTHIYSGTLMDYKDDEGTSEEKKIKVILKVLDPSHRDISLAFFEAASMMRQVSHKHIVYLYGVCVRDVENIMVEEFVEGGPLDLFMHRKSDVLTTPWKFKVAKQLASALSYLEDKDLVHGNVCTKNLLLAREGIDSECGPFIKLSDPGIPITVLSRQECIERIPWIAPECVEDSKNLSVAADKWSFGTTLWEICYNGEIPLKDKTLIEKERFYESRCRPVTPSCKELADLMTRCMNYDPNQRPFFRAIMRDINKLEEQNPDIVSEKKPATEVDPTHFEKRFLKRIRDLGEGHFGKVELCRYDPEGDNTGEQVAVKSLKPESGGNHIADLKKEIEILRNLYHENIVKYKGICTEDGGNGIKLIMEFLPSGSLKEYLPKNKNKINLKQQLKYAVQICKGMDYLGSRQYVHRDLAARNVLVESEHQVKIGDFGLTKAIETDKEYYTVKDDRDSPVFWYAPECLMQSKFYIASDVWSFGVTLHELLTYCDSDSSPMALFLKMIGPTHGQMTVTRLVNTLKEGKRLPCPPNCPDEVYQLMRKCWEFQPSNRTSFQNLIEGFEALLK
RIPK2, sequence (O43353 whole entry): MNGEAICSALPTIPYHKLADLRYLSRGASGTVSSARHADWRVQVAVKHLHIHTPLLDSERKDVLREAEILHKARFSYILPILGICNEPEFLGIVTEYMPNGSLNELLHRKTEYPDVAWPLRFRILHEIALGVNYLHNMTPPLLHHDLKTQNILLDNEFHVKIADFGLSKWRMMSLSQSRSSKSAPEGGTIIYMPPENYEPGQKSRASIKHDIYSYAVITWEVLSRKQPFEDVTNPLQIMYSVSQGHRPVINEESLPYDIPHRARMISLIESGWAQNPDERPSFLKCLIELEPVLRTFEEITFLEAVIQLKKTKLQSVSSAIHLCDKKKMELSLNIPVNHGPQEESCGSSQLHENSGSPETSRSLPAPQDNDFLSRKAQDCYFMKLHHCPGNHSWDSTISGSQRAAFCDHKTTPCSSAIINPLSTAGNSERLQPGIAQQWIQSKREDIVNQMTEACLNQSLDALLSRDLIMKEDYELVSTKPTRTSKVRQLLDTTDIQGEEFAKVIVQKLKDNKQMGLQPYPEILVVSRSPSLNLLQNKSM
p38a (MAPK14, IPI00002857), sequence (Q16539 whole entry): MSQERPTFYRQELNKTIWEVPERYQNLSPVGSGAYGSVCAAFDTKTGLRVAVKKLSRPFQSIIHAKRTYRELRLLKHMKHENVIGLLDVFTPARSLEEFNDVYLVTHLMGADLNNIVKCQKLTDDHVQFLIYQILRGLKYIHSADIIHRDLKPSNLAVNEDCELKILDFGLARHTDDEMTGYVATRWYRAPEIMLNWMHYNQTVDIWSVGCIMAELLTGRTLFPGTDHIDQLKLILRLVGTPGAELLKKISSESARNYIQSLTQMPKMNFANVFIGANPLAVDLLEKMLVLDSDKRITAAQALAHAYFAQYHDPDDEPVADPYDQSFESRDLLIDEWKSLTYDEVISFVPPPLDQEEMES
SNRPE, sequence (P62304 whole entry): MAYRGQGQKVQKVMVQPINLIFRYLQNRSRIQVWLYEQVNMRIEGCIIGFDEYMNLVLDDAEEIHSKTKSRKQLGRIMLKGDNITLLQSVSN
JNK2, sequence (P45984 whole entry): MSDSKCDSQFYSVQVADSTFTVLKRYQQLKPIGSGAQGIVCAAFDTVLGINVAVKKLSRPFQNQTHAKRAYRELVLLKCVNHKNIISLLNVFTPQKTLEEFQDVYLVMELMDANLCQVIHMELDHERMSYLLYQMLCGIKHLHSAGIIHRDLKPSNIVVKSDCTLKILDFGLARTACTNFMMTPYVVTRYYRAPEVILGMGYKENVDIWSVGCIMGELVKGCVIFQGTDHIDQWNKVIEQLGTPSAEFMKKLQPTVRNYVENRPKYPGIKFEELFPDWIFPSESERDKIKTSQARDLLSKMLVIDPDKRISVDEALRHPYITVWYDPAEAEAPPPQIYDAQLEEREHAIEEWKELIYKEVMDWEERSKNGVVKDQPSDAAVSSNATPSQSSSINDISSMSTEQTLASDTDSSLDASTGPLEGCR
JNK2 (MAPK9), sequence (P45984 whole entry): as above
CaMK2g (CAMK2G), sequence (Q13555 whole entry): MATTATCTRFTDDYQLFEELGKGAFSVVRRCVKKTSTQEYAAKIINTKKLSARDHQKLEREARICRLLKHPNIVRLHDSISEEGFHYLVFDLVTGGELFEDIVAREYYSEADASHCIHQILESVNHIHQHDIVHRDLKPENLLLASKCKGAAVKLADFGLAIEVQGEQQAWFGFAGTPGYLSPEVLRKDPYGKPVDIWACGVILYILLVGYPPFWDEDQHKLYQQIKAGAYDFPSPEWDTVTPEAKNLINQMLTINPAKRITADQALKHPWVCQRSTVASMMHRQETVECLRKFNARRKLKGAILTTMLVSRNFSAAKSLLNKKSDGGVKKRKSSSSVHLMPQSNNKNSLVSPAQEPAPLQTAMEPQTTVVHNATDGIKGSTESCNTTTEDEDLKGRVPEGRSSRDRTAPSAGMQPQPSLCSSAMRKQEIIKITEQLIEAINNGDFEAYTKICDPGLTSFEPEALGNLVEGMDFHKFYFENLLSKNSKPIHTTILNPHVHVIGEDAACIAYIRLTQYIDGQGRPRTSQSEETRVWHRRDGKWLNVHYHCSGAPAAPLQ
ERK2, sequence (P28482 whole entry): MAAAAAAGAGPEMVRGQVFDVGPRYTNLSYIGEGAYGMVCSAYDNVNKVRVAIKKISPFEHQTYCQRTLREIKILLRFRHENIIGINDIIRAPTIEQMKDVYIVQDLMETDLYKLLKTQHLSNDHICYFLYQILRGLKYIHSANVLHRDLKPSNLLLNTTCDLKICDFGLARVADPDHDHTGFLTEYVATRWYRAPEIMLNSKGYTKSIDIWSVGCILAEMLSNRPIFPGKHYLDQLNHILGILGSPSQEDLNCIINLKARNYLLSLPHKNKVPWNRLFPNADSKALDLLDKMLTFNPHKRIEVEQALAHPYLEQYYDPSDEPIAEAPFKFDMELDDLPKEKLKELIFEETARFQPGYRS

Structure (SMILES): COc1cc2ncnc(Nc3ccc(F)c(Cl)c3)c2cc1OCCCN [AX14596]
- Ki [1]: 110 µM
- r (3 mg/1 mg lysate) [1]: 2.58
- r (5 h/2.5 h inc. time) [1]: 0.95
- rAVERAGE (2. inc/1. inc) [1]: 0.52
- rAVERAGE (control/1. inc) [1]: 0.03
- % BOUND ([1]; bound to AX14596 beads): 48%
- Ki [2]: 332 µM
- r (3 mg/1 mg lysate) [2]: 2.74
- r (5 h/2.5 h inc. time) [2]: 1.15
- rAVERAGE (2. inc/1. inc) [2]: 0.77
- rAVERAGE (control/1. inc) [2]: 0.06
- Ki [3]: 93.4 µM
- r (3 mg/1 mg lysate) [3]: 2.45
- r (5 h/2.5 h inc. time) [3]: 1.17
- rAVERAGE (2. inc/1. inc) [3]: 0.48
- rAVERAGE (control/1. inc) [3]: 0.04
- Ki [4]: 385 µM
- r (3 mg/1 mg lysate) [4]: 2.53
- r (5 h/2.5 h inc. time) [4]: 0.96
- rAVERAGE (2. inc/1. inc) [4]: 0.79
- rAVERAGE (control/1. inc) [4]: 0.08
- Ki [5]: 106 µM
- r (3 mg/1 mg lysate) [5]: 2.57
- r (5 h/2.5 h inc. time) [5]: 1.88
- rAVERAGE (2. inc/1. inc) [5]: 0.51
- rAVERAGE (control/1. inc) [5]: 0.07
- Ki [6]: 45 µM and 45.4 µM
- r (3 mg/1 mg lysate) [6]: 2.56
- r (5 h/2.5 h inc. time) [6]: 0.96
- rAVERAGE (2. inc/1. inc) [6]: 0.31
- rAVERAGE (control/1. inc) [6]: 0.02
- % BOUND ([6]; bound to AX14596 beads): 69%

Structure (SMILES): CC(C)n1c(=O)ccc2cnc(Nc3ccc(OCCN)cc3)nc21 [compound 16742]
- Percent bound at 1.87 μM 16742 conc ([7]; EXPERIMENT 1): 68.10%
- Percent bound at 8.74 μM 16742 conc ([7]; EXPERIMENT 1): 89.45%
- Percent bound at 52 μM 16742 conc ([7]; EXPERIMENT 1): 92.48%
- Kd ([7]; EXPERIMENT 1, read-out: Kd): 0.91 µM
- Percent bound at 1.87 μM 16742 conc ([7]; EXPERIMENT 2): 57.18%
- Percent bound at 8.74 μM 16742 conc ([7]; EXPERIMENT 2): 75.70%
- Percent bound at 52 μM 16742 conc ([7]; EXPERIMENT 2): 94.94%
- Kd ([7]; EXPERIMENT 2, read-out: Kd): 1.69 µM
- Kd ([7]; read-out: Kd Avg): 1.3 µM
- Percent bound at 1.87 μM 16742 conc ([8]; EXPERIMENT 1): 0.33%
- Percent bound at 8.74 μM 16742 conc ([8]; EXPERIMENT 1): 6.55%
- Percent bound at 52 μM 16742 conc ([8]; EXPERIMENT 1): 73.70%
- Percent bound at 52 μM 16742 conc ([8]; EXPERIMENT 2): 61.49%
- Kd ([8]; read-out: Kd Avg): 32 µM
- Percent bound at 1.87 μM 16742 conc ([9]; EXPERIMENT 1): 3.74%
- Percent bound at 8.74 μM 16742 conc ([9]; EXPERIMENT 1): 42.39%
- Percent bound at 52 μM 16742 conc ([9]; EXPERIMENT 1): 91.89%
- Kd ([9]; EXPERIMENT 1, read-out: Kd): 11.4 µM
- Percent bound at 1.87 μM 16742 conc ([9]; EXPERIMENT 2): 5.20%
- Percent bound at 8.74 μM 16742 conc ([9]; EXPERIMENT 2): 38.79%
- Percent bound at 52 μM 16742 conc ([9]; EXPERIMENT 2): 90.30%
- Kd ([9]; EXPERIMENT 2, read-out: Kd): 12.4 µM
- Kd ([9]; read-out: Kd Avg): 11.9 µM
- Percent bound at 1.87 μM 16742 conc ([10]; EXPERIMENT 1): 1.41%
- Percent bound at 8.74 μM 16742 conc ([10]; EXPERIMENT 1): 5.40%
- Percent bound at 52 μM 16742 conc ([10]; EXPERIMENT 1): 70.05%
- Kd ([10]; EXPERIMENT 1, read-out: Kd): 35.1 µM
- Percent bound at 1.87 μM 16742 conc ([10]; EXPERIMENT 2): 2.43%
- Percent bound at 8.74 μM 16742 conc ([10]; EXPERIMENT 2): 5.90%
- Percent bound at 52 μM 16742 conc ([10]; EXPERIMENT 2): 65.58%
- Kd ([10]; EXPERIMENT 2, read-out: Kd): 38.5 µM
- Kd ([10]; read-out: Kd Avg): 36.8 µM
- Percent bound at 1.87 μM 16742 conc ([11]; EXPERIMENT 1): 16.10%
- Percent bound at 8.74 μM 16742 conc ([11]; EXPERIMENT 1): 75.89%
- Percent bound at 52 μM 16742 conc ([11]; EXPERIMENT 1): 90.34%
- Kd ([11]; EXPERIMENT 1, read-out: Kd): 4.76 µM
- Percent bound at 1.87 μM 16742 conc ([11]; EXPERIMENT 2): 8.59%
- Percent bound at 8.74 μM 16742 conc ([11]; EXPERIMENT 2): 30.74%
- Percent bound at 52 μM 16742 conc ([11]; EXPERIMENT 2): 78.69%
- Kd ([11]; EXPERIMENT 2, read-out: Kd): 17.4 µM
- Kd ([11]; read-out: Kd Avg): 11.1 µM

Structure (SMILES): CC(C)n1c(=O)ccc2cnc(Nc3ccc(OCCN)cc3)nc21 [V16742]
- affinity class of target for V16742 [7]: High affinity target
- Kd [8, 12]: 32 µM
- affinity class of target for V16742 [9]: Moderate affinity target
- affinity class of target for V16742 ([10]; ERK2): Low affinity target
- Kd [11, 12]: 11.1 µM
